Measurements reported in patent US20150094474A1, “AGRICULTURAL CHEMICALS” (Redx Pharma Ltd., priority 2012, published 2015).

Assays:
[1] = system: barley; assay: Herbicidal bioassay, barley (% necrosis); type: in vivo
In short: (§1)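 Scoring of % necrosis followed EPPO guideline PP1/135 at specified growth intervals, five replicates per species and treatment. Plants at the 2-4 true leaf stage received Potter-tower sprays of DMSO-diluted compounds across six levels from 0.0001% to 0.05%, with water and DMSO controls.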

[2] = system: peas; assay: Herbicidal bioassay, peas (% necrosis); type: in vivo
In short: as §1

CC(/C=N/O)Oc1ccc(Oc2ccc(C(F)(F)F)cn2)cc1 (stereo not drawn) [Compound 64, (1E)-2-[4-[[5-(Trifluoromethyl)-2-pyridyl]oxy]phenoxy]propanal oxime]
C (less than 50% necrosis): Sum of % necrosis in barley ([1]; Dose 0.000001, Day 0) | Sum of % necrosis in barley ([1]; Dose 0.000001, Day 1) | Sum of % necrosis in barley ([1]; Dose 0.000001, Day 3) | Sum of % necrosis in barley ([1]; Dose 0.000001, Day 7) | Sum of % necrosis in barley ([1]; Dose 0.000001, Day 10) | Sum of % necrosis in barley ([1]; Dose 0.000001, Day 14) | Sum of % necrosis in barley ([1]; Dose 0.000001, Day 21) | Sum of % necrosis in barley ([1]; Dose 0.000005, Day 0) | Sum of % necrosis in barley ([1]; Dose 0.000005, Day 1) | Sum of % necrosis in barley ([1]; Dose 0.000005, Day 3) | Sum of % necrosis in barley ([1]; Dose 0.000005, Day 7) | Sum of % necrosis in barley ([1]; Dose 0.000005, Day 10) | Sum of % necrosis in barley ([1]; Dose 0.000005, Day 14) | Sum of % necrosis in barley ([1]; Dose 0.000005, Day 21) | Sum of % necrosis in barley ([1]; Dose 0.00001, Day 0) | Sum of % necrosis in barley ([1]; Dose 0.00001, Day 1) | Sum of % necrosis in barley ([1]; Dose 0.00001, Day 3) | Sum of % necrosis in barley ([1]; Dose 0.00001, Day 7) | Sum of % necrosis in barley ([1]; Dose 0.00001, Day 10) | Sum of % necrosis in barley ([1]; Dose 0.00001, Day 14) | Sum of % necrosis in barley ([1]; Dose 0.00001, Day 21) | Sum of % necrosis in barley ([1]; Dose 0.00005, Day 0) | Sum of % necrosis in barley ([1]; Dose 0.00005, Day 1) | Sum of % necrosis in barley ([1]; Dose 0.00005, Day 3) | Sum of % necrosis in barley ([1]; Dose 0.00005, Day 7) | Sum of % necrosis in barley ([1]; Dose 0.00005, Day 10) | Sum of % necrosis in barley ([1]; Dose 0.00005, Day 14) | Sum of % necrosis in barley ([1]; Dose 0.00005, Day 21) | Sum of % necrosis in barley ([1]; Dose 0.0001, Day 0) | Sum of % necrosis in barley ([1]; Dose 0.0001, Day 1) | Sum of % necrosis in barley ([1]; Dose 0.0001, Day 3) | Sum of % necrosis in barley ([1]; Dose 0.0001, Day 7) | Sum of % necrosis in barley ([1]; Dose 0.0001, Day 10) | Sum of % necrosis in barley ([1]; Dose 0.0001, Day 14) | Sum of % necrosis in barley ([1]; Dose 0.0001, Day 21) | Sum of % necrosis in barley ([1]; Dose 0.0005, Day 0) | Sum of % necrosis in barley ([1]; Dose 0.0005, Day 1) | Sum of % necrosis in barley ([1]; Dose 0.0005, Day 3) | Sum of % necrosis in barley ([1]; Dose 0.0005, Day 7) | Sum of % necrosis in Peas ([2]; Dose 0.000001, Day 0) | Sum of % necrosis in Peas ([2]; Dose 0.000001, Day 1) | Sum of % necrosis in Peas ([2]; Dose 0.000001, Day 3) | Sum of % necrosis in Peas ([2]; Dose 0.000001, Day 7) | Sum of % necrosis in Peas ([2]; Dose 0.000001, Day 10) | Sum of % necrosis in Peas ([2]; Dose 0.000001, Day 14) | Sum of % necrosis in Peas ([2]; Dose 0.000005, Day 0) | Sum of % necrosis in Peas ([2]; Dose 0.000005, Day 1) | Sum of % necrosis in Peas ([2]; Dose 0.000005, Day 3) | Sum of % necrosis in Peas ([2]; Dose 0.000005, Day 7) | Sum of % necrosis in Peas ([2]; Dose 0.000005, Day 10) | Sum of % necrosis in Peas ([2]; Dose 0.000005, Day 14) | Sum of % necrosis in Peas ([2]; Dose 0.000005, Day 21) | Sum of % necrosis in Peas ([2]; Dose 0.00001, Day 0) | Sum of % necrosis in Peas ([2]; Dose 0.00001, Day 1) | Sum of % necrosis in Peas ([2]; Dose 0.00001, Day 3) | Sum of % necrosis in Peas ([2]; Dose 0.00001, Day 7) | Sum of % necrosis in Peas ([2]; Dose 0.00001, Day 10) | Sum of % necrosis in Peas ([2]; Dose 0.00005, Day 0) | Sum of % necrosis in Peas ([2]; Dose 0.00005, Day 1) | Sum of % necrosis in Peas ([2]; Dose 0.00005, Day 3) | Sum of % necrosis in Peas ([2]; Dose 0.00005, Day 7) | Sum of % necrosis in Peas ([2]; Dose 0.00005, Day 10) | Sum of % necrosis in Peas ([2]; Dose 0.00005, Day 14) | Sum of % necrosis in Peas ([2]; Dose 0.00005, Day 21) | Sum of % necrosis in Peas ([2]; Dose 0.0001, Day 0) | Sum of % necrosis in Peas ([2]; Dose 0.0001, Day 1) | Sum of % necrosis in Peas ([2]; Dose 0.0001, Day 3) | Sum of % necrosis in Peas ([2]; Dose 0.0001, Day 7) | Sum of % necrosis in Peas ([2]; Dose 0.0001, Day 10) | Sum of % necrosis in Peas ([2]; Dose 0.0005, Day 0) | Sum of % necrosis in Peas ([2]; Dose 0.0005, Day 1) | Sum of % necrosis in Peas ([2]; Dose 0.0005, Day 3) | Sum of % necrosis in Peas ([2]; Dose 0.0005, Day 7) | Sum of % necrosis in Peas ([2]; Dose 0.0005, Day 10) | Sum of % necrosis in Peas ([2]; Dose 0.0005, Day 14)
A (over 80% necrosis): Sum of % necrosis in Peas ([2]; Dose 0.00001, Day 21) | Sum of % necrosis in Peas ([2]; Dose 0.0001, Day 21) | Sum of % necrosis in Peas ([2]; Dose 0.0005, Day 21)
B (50%-80% necrosis): Sum of % necrosis in barley ([1]; Dose 0.0005, Day 10) | Sum of % necrosis in barley ([1]; Dose 0.0005, Day 14) | Sum of % necrosis in barley ([1]; Dose 0.0005, Day 21) | Sum of % necrosis in Peas ([2]; Dose 0.000001, Day 21) | Sum of % necrosis in Peas ([2]; Dose 0.00001, Day 14) | Sum of % necrosis in Peas ([2]; Dose 0.0001, Day 14)
